In the supplement of paper PMC10307832:

How the values were obtained:
Assay in all cases: relative viability (nuclei count vs DMSO), 5 days (fraction); higher = more cells survive
NCI-H1944 = tested on: NCI-H1944
Outline: (§1)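 Relative viability divides the nuclei count in treated wells by that in vehicle wells. Lung cancer cell lines were seeded in 1536-well plates, dosed by pin tool the next day, and fixed and stained after 5 days in one step with final 0.05% Triton X-100, 1% formaldehyde and 1 ug/ml Hoechst. Dosing was a single drug or a fixed anchor-drug dose plus five library-drug doses (not always all listed) in √10 steps, and values are medians of duplicate plates imaged at 4×.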

A-427 = tested on: A-427
Outline: as §1

HCC-78 = tested on: HCC-78
Outline: as §1

NCI-H1975 = tested on: NCI-H1975
Outline: as §1

LU99A = tested on: LU99A
Outline: as §1

NCI-H1793 = tested on: NCI-H1793
Outline: as §1

NCI-H460 = tested on: NCI-H460
Outline: as §1

HCC-366 = tested on: HCC-366
Outline: as §1

NCI-H2085 = tested on: NCI-H2085
Outline: as §1

NCI-H2170 = tested on: NCI-H2170
Outline: as §1

LC-2-ad = tested on: LC-2-ad
Outline: as §1

**Q.** Which results are given for Clc1ccc(Nc2nnc(Cc3ccncc3)c3ccccc23)cc1 [Vatalanib] + CS(=O)(=O)CCNCc1ccc(-c2ccc3ncnc(Nc4ccc(OCc5cccc(F)c5)c(Cl)c4)c3c2)o1 [Lapatinib] (partner 2 µM)?
**A.** relative viability (NCI-H1944; first compound 0.04 µM): 0.904; relative viability (NCI-H1944; first compound 0.1265 µM): 0.635; relative viability (NCI-H1944; first compound 0.4 µM): 0.909; relative viability (NCI-H1944; first compound 1.265 µM): 0.804; relative viability (NCI-H1944; first compound 4 µM): 0.784; relative viability (A-427; first compound 0.04 µM): 1.01; relative viability (A-427; first compound 0.1265 µM): 0.938; relative viability (A-427; first compound 0.4 µM): 0.769; relative viability (A-427; first compound 1.265 µM): 0.972; relative viability (A-427; first compound 4 µM): 1.11; relative viability (HCC-78; first compound 0.04 µM): 0.694; relative viability (HCC-78; first compound 0.1265 µM): 0.634; relative viability (HCC-78; first compound 0.4 µM): 0.937; relative viability (HCC-78; first compound 4 µM): 0.478; relative viability (NCI-H1975; first compound 0.04 µM): 0.856; relative viability (NCI-H1975; first compound 0.1265 µM): 0.827; relative viability (NCI-H1975; first compound 0.4 µM): 0.942; relative viability (NCI-H1975; first compound 1.265 µM): 0.808; relative viability (NCI-H1975; first compound 4 µM): 0.769; relative viability (LU99A; first compound 0.04 µM): 0.893; relative viability (LU99A; first compound 0.1265 µM): 0.986; relative viability (LU99A; first compound 0.4 µM): 1.16; relative viability (LU99A; first compound 1.265 µM): 0.831; relative viability (LU99A; first compound 4 µM): 0.92; relative viability (NCI-H1793; first compound 0.04 µM): 0.743; relative viability (NCI-H1793; first compound 0.1265 µM): 0.704; relative viability (NCI-H1793; first compound 0.4 µM): 1.05; relative viability (NCI-H1793; first compound 1.265 µM): 0.64; relative viability (NCI-H1793; first compound 4 µM): 0.81; relative viability (NCI-H460; first compound 0.04 µM): 1.04; relative viability (NCI-H460; first compound 0.1265 µM): 0.848; relative viability (NCI-H460; first compound 0.4 µM): 0.931; relative viability (NCI-H460; first compound 1.265 µM): 0.845; relative viability (NCI-H460; first compound 4 µM): 0.898; relative viability (HCC-366; first compound 0.04 µM): 1.02; relative viability (HCC-366; first compound 0.1265 µM): 0.93; relative viability (HCC-366; first compound 0.4 µM): 1.06; relative viability (HCC-366; first compound 1.265 µM): 0.937; relative viability (HCC-366; first compound 4 µM): 1.03; relative viability (NCI-H2085; first compound 0.04 µM): 0.818; relative viability (NCI-H2085; first compound 0.1265 µM): 0.736; relative viability (NCI-H2085; first compound 0.4 µM): 0.891; relative viability (NCI-H2085; first compound 1.265 µM): 0.701; relative viability (NCI-H2085; first compound 4 µM): 0.723; relative viability (NCI-H2170; first compound 0.04 µM): 0.261; relative viability (NCI-H2170; first compound 0.1265 µM): 0.268; relative viability (NCI-H2170; first compound 0.4 µM): 0.286; relative viability (NCI-H2170; first compound 1.265 µM): 0.261; relative viability (NCI-H2170; first compound 4 µM): 0.264; relative viability (LC-2-ad; first compound 0.04 µM): 0.977; relative viability (LC-2-ad; first compound 0.1265 µM): 0.865; relative viability (LC-2-ad; first compound 0.4 µM): 0.952; relative viability (LC-2-ad; first compound 1.265 µM): 0.936; relative viability (LC-2-ad; first compound 4 µM): 0.901
